The text below walks through data of patent EP2143422A1, “Ophthalmic compositions containing gemifloxacin for the treatment of ocular infections” (S.I.F.I - SOCIETÀ INDUSTRIA FARMACEUTICA ITALIANA - S.P.A., priority 2008, dated 2010).

Values after ≈ are worked out from the molar mass of the structure shown. Like-named read-outs stand apart in the source and are kept apart here. Bounds are passed on as bounds.

The subject of data set [1] is ocular St. aureus isolate (7786). Kind of data set: In vivo effectiveness: bacterial load (CFU/g) in cornea, bacterial keratitis model. On the set-up: species or system New Zealand albino rabbits. As to the method:
(§1) The effectiveness and accumulation of gemifloxacin in the cornea and aqueous humour were determined in vivo after administration of the 0.3% gemifloxacin compositions (emulsion and aqueous solution) and compared to 0.3% norfloxacin and ofloxacin in aqueous solution, in New Zealand albino rabbits having been induced with bacterial keratitis (Survey of Ophthalmology, vol. 50, suppl. Nov. 2005, p.S32-S48) by intrastromal injection of an inoculum of an ocular St. aureus isolate (7786).
(§2) Male New Zealand albino rabbits were used (Harlan Italia) into which the keratitis had been induced - following anaesthesia with ketamine (37.5 mg/kg) and xylazine (10 mg/kg) by intramuscular means and novesine by topical means (2 drops per eye) - by intrasomal injection of a suspension of the ocular St. aureus isolate 7786 in PBS (Phosphate Buffered Solution). The injection was carried out using an insulin syringe with a 30-gauge needle in each cornea of each rabbit.
(§3) In the first experiment the following treatments were compared: 0.15% aqueous gemifloxacin solution, 0.3% aqueous gemifloxacin solution, 0.3% aqueous norfloxacin solution and physiological solution (0.9% NaCl) as control. The treatment was undertaken every 2 hours over 3 consecutive treatment days (5 administrations/day). The tissues were collected an hour after the last treatment, with the end point being after one day and after three days of treatment.
(§4) In the second experiment the following treatment groups were compared: 0.3% aqueous gemifloxacin solution, 0.3% gemifloxacin emulsion, 0.3% aqueous ofloxacin solution and physiological solution (0.9% NaCl) as control. The treatment was carried out every hour for only one day of treatment (7 administrations/day). The tissues were collected from the animals in each group, killed one hour after the last treatment.
All the compositions used in the two experiments described were administered at 50 µl per treatment.
The bacterial load of each sample was determined by counting CFUs (Colony Forming Units) on a filter and plate, to be reported as CFU/g of tissue.

A further data set deals with Ps. aeruginosa. Kind of data set: E-test (Epsilometer-test), in vitro antibacterial effectiveness. Type of data set: cell-based. The following applies: Pseudomonas aeruginosa; 8 ocular isolates of Ps. aeruginosa. An excerpt:
(§5) In order to assay the effectiveness of gemifloxacin against the most representative pathogenic strains in ophthalmic infections, its activity was verified in vitro, in terms of MIC50 and MIC90 with the E-test method described by V. […] The following ATCC bacterial strains were also included: Staphylococcus aureus 25923, Staphylococcus aureus 29213, Staphylococcus aureus 43300, S. epidermidis 35984, Pseudomonas aeruginosa 27853 and Pseudomonas aeruginosa 9027.

Another data set concerns Serratia marcescens. The description is as above. The following applies: 5 ocular isolates of Serratia marcescens. Type of data set: cell-based.
Excerpt: as §5

The subject of another data set is St. epidermidis. Described as above. In kind it is cell-based. The following applies: Staphylococcus epidermidis; 29 ocular isolates of St. epidermidis. An excerpt: (§6) In order to assay the effectiveness of gemifloxacin against the most representative pathogenic strains in ophthalmic infections, its activity was verified in vitro, in terms of MIC50 and MIC90 with the E-test method described by V. Lorian in "Antibiotics in laboratory medicine" (IV ed. 1996, 23-28) and compared to moxifloxacin, ciprofloxacin, levofloxacin and ofloxacin against 85 ocular bacterial isolates subdivided as follows: • 27 St. aureus, 29 S. epidermidis, 16 Coagulase Negative Staphylococci (CNS), 8 Ps. aeruginosa and 5 Serratia marcescens. The following ATCC bacterial strains were also included: Staphylococcus aureus 25923, Staphylococcus aureus 29213, Staphylococcus aureus 43300, S. epidermidis 35984, Pseudomonas aeruginosa 27853 and Pseudomonas aeruginosa 9027.
(§7) The staphylococci also included methicillin resistant strains (MRSA and MRSE).

The subject of data set [2] is St. aureus. Described as above. The note with it: 27 ocular isolates of St. aureus. In kind it is cell-based.
Excerpt: as §6, §7

A further data set relates to St. coagulase negative. Described as above. Type of data set: cell-based, Coagulase Negative Staphylococci (CNS). The note with it: 16 ocular isolates.
Excerpt: as §6, §7

Data set [3] in a line: In vivo pharmacokinetic test: ocular tissue distribution after single ophthalmic administration. Set-up: species or system pigmented rabbits. The note with it: rabbit, topical, 30 µl of 0.3% solution per eye. The method, then: The penetration capacity of gemifloxacin was determined in the cornea, conjunctiva, aqueous humour and iris-ciliary body after single ophthalmic administration (30 µl) of the solution at 0.3% in both eyes of pigmented rabbits. The tissues were collected at the following times: 15 minutes, 30 minutes, 1, 2, 4, 8, 12, 24 and 48 hours. Quantitative analysis of the samples was carried out by a LC/MS/MS method after suitable extraction of the active principle from the tissue and expressed as µg/g or µg/ml of tissue.

Details of data set [4]: species or system New Zealand albino rabbits. The note with it: male, New Zealand albino, rabbit, in vivo. The method, then: as §1, §2, §3, §4
All the compositions used in the two experiments described were administered at 50 µl per treatment. […]
The fluorescence value obtained was interpolated using the relative standard curve and expressed as nanograms/ml or nanograms/g of tissue.

For data set [5], the system named is St. aureus. The following applies: literature, cited from earlier work.
The mark [6] stands for this setting: first experiment, 0.3% aqueous solution, every 2 hours, 5 administrations/day, after one and three days, compared with control (gemifloxacin also vs norfloxacin).
[7] abbreviates: Staphylococcus aureus, read-out: MIC90.
Where [8] appears, read: conjunctiva, single ophthalmic administration (30 µl) of 0.3% solution.
[9] abbreviates: cornea, single ophthalmic administration (30 µl) of 0.3% solution.

Broadly, the MIC50 is an inhibitory concentration at the 50% level, which refers to growth in some studies and to a panel of isolates in others. One may read the MIC90 as an inhibitory concentration at the 90% level, which refers to growth in some studies and to a panel of isolates in others. The Cmax is the highest concentration seen after dosing. By Tmax is commonly meant the time at which the peak concentration occurs. For `CO/N=C1\CN(c2nc3c(cc2F)c(=O)c(C(=O)O)cn3C2CC2)CC1CN` (racemic) [Gemifloxacin, (R,S)-7-(3-aminomethyl-4-methoxyiminopyrrolidin-1yl)-1-cyclopropyl-6-fluoro-4-oxo-1,4-dihydro-1,8-naphthyridin-3-carboxylic acid], the “reduction in bacterial load in the cornea” value in data set [1] (first experiment, 0.15% aqueous solution, every 2 hours, 5 administrations/day, after one and three days, compared to control and 0.3% norfloxacin) is listed as “statistically significant reduction in bacterial load”; in data set [1] (setting [6]) it was “statistically significant reduction in bacterial load”; in data set [1] (second experiment, 0.3% aqueous solution, every hour, 7 administrations, one day, compared to control), “statistically significantly reduce”; in [1] (second experiment, 0.3% emulsion, every hour, 7 administrations, one day, compared to control) it was “statistically significantly reduce”. In addition, in data set [1] (second experiment, gemifloxacin-containing compositions (0.3% aqueous solution and 0.3% emulsion) vs 0.3% ofloxacin solution), the “reduction in bacterial load relative to the reduction effected by ofloxacin” value is “statistically significant”. The MIC50 in the data set on Ps. aeruginosa was 0.125 µg/mL (≈ 0.321 µM); in the data set on Serratia marcescens, 0.125 µg/mL (≈ 0.321 µM); with St. epidermidis it was 0.023 µg/mL (≈ 0.0591 µM); against St. aureus [2] (Staphylococcus aureus) it was 0.032 µg/mL (≈ 0.0822 µM); against St. coagulase negative, 0.016 µg/mL (≈ 0.0411 µM). Further, the MIC90 against Ps. aeruginosa turned out to be 0.25 µg/mL (≈ 0.642 µM); in the data set with Serratia marcescens, 0.19 µg/mL (≈ 0.488 µM); against St. epidermidis, 0.094 µg/mL (≈ 0.241 µM); with St. aureus [2] (setting [7]) it was 0.064 µg/mL (≈ 0.164 µM); in the data set with St. coagulase negative, 0.047 µg/mL (≈ 0.121 µM). The peak concentration (Cmax) in data set [3] (aqueous humour, single administration of 0.3% aqueous solution, healthy eyes) amounted to 26 ng/mL; in data set [3] (conjunctiva, single administration of 0.3% aqueous solution, healthy eyes), 980 ng/mL; in data set [3] (setting [8]) it was 980 ng/g; in data set [3] (cornea, single administration of 0.3% aqueous solution, healthy eyes), 2600 ng/mL; in [3] (setting [9]), 2600 ng/g; in [3] (iris-ciliary body, single administration of 0.3% aqueous solution, healthy eyes), 460 ng/g. Moreover, the Tmax in data set [3] (aqueous humour, single ophthalmic administration (30 µl) of 0.3% solution) is 2 h; in [3] (setting [8]) it was 0.25 h; in data set [3] (setting [9]) it was 0.25 h; in data set [3] (iris-ciliary body, single ophthalmic administration (30 µl) of 0.3% solution), 2 h.
In the case of `O=C(O)c1cn(C2CC2)c2cc(N3CCNCC3)c(F)cc2c1=O` [Ciprofloxacin], the MIC50 in the data set on Ps. aeruginosa worked out at 0.125 µg/mL (≈ 0.377 µM); in the data set with Serratia marcescens it was 0.064 µg/mL (≈ 0.193 µM); in the data set on St. epidermidis, 0.19 µg/mL (≈ 0.573 µM); against St. aureus [2] (Staphylococcus aureus) it was 0.5 µg/mL (≈ 1.51 µM); against St. coagulase negative, 0.25 µg/mL (≈ 0.754 µM). The MIC90 was 0.25 µg/mL (≈ 0.754 µM) in the data set on Ps. aeruginosa; 0.125 µg/mL (≈ 0.377 µM) against Serratia marcescens; 0.5 µg/mL (≈ 1.51 µM) against St. epidermidis; > 32 µg/mL in the data set on St. aureus [2] (setting [7]); 0.25 µg/mL (≈ 0.754 µM) in the data set with St. coagulase negative.
Take `C[C@H]1COc2c(N3CCN(C)CC3)c(F)cc3c(=O)c(C(=O)O)cn1c23` [Levofloxacin]: the MIC50 with Ps. aeruginosa stood at 0.5 µg/mL (≈ 1.38 µM); against Serratia marcescens, 0.125 µg/mL (≈ 0.346 µM); against St. epidermidis it was 0.19 µg/mL (≈ 0.526 µM); in the data set on St. aureus [2] (Staphylococcus aureus), 0.25 µg/mL (≈ 0.692 µM); in the data set on St. coagulase negative, 0.25 µg/mL (≈ 0.692 µM). Besides, the MIC90 was found to be 0.75 µg/mL (≈ 2.08 µM) against Ps. aeruginosa; 0.25 µg/mL (≈ 0.692 µM) against Serratia marcescens; 0.38 µg/mL (≈ 1.05 µM) against St. epidermidis; 0.75 µg/mL (≈ 2.08 µM) in the data set on St. aureus [2] (setting [7]); 0.25 µg/mL (≈ 0.692 µM) against St. coagulase negative.
With `COc1c(N2C[C@@H]3CCCN[C@@H]3C2)c(F)cc2c(=O)c(C(=O)O)cn(C3CC3)c12` [Moxifloxacin], the MIC50 in the data set on Ps. aeruginosa stood at 0.5 µg/mL (≈ 1.25 µM); in the data set on Serratia marcescens, 0.19 µg/mL (≈ 0.473 µM); in the data set with St. epidermidis, 0.047 µg/mL (≈ 0.117 µM); with St. aureus [2] (Staphylococcus aureus), 0.064 µg/mL (≈ 0.159 µM); against St. coagulase negative it was 0.047 µg/mL (≈ 0.117 µM). Besides, the MIC90 against Ps. aeruginosa was determined as 1 µg/mL (≈ 2.49 µM); against Serratia marcescens, 0.38 µg/mL (≈ 0.947 µM); with St. epidermidis, 0.094 µg/mL (≈ 0.234 µM); in the data set with St. aureus [2] (setting [7]), 0.38 µg/mL (≈ 0.947 µM); in the data set with St. coagulase negative it was 0.094 µg/mL (≈ 0.234 µM).
As for `CC1COc2c(N3CCN(C)CC3)c(F)cc3c(=O)c(C(=O)O)cn1c23` (stereo not shown) [Ofloxacin], the MIC50 against Ps. aeruginosa was found to be 0.5 µg/mL (≈ 1.38 µM); with Serratia marcescens it was 0.19 µg/mL (≈ 0.526 µM); with St. epidermidis it was 0.25 µg/mL (≈ 0.692 µM); against St. aureus [2] (Staphylococcus aureus) it was 0.5 µg/mL (≈ 1.38 µM); in the data set on St. coagulase negative it was 0.25 µg/mL (≈ 0.692 µM). Also, the MIC90 against Ps. aeruginosa was 1 µg/mL (≈ 2.77 µM); against Serratia marcescens, 0.38 µg/mL (≈ 1.05 µM); with St. epidermidis it was 16 µg/mL (≈ 44.3 µM); in the data set on St. aureus [2] it was 1.5 µg/mL (≈ 4.15 µM); in the data set on St. aureus [2] (listed as ofloxacin), 1.15 µg/mL (≈ 3.18 µM); in the data set with St. aureus [2] (setting [7]), 1.5 µg/mL (≈ 4.15 µM). This compound also showed an MIC90 against St. coagulase negative of 0.5 µg/mL (≈ 1.38 µM). In addition, in data set [4], the “concentration in the aqueous humour” value is recorded as “about 1.5 µg/ml”. Further, in data set [4], the “concentration in the cornea relative to MIC for St. aureus” value is listed as “near to its MIC50”.
For the compound `CCn1cc(C(=O)O)c(=O)c2cc(F)c(N3CCNCC3)cc21` [norfloxacin], the “reduction in bacterial load in the cornea” value in data set [1] (setting [6]) is “does not lead to a reduction in bacterial load”. The MIC50 in the data set on St. aureus [5] (lower end of MIC50-MIC90 range for St. aureus) is 0.5 µg/mL (≈ 1.57 µM). For the same compound, in the data set with St. aureus [5] (upper end of MIC50-MIC90 range for St. aureus), the MIC90 was 2 µg/mL (≈ 6.26 µM). Further, the “concentration in the cornea relative to MIC for St. aureus” value in data set [4] is “lower corneal concentrations than its MIC50-MIC90 range”.
